The subject of the test is KB. As to the kind of experiment: Cytotoxicity against human KB cells. The class given is functional, cell-based.

As a reminder, the IC50 is the concentration that gives 50% inhibition. Read a high IC50 as lower potency.

As for `C#CCCC[C@@H]1NC(=O)[C@H](C(C)C)NC(=O)[C@@H](Cc2ccccc2)N(C)C(=O)[C@@H](C(C)C)N(C)C(=O)[C@H](C(C)C)NC(=O)[C@H](C(C)C)N(C)C(=O)[C@H](C)OC(=O)[C@H]1C` [ULONGAPEPTIN], it took 630 nM to reach half-maximal inhibition (IC50). This lies in the sub-micromolar range.

Values taken from ChEMBL document CHEMBL1159389, “Ulongapeptin, a cytotoxic cyclic depsipeptide from a Palauan marine cyanobacterium Lyngbya sp” (J Nat Prod, 2003).
